From US20050032873A1, “3-Amino chroman and 2-amino tetralin derivatives” (Wyeth, priority 2003, published 2005)
Like-named read-outs stand apart in the source and are kept apart here.

Assays:
[1] = target: T1, cloned human 5-HT1A receptors (Homo sapiens, UniProt P08908); experiment: 35S-GTPγS binding assay, 5-HT1A function; assay type: biochemical; settings: for EC50: agonist potency
T1 construct: expressed in transfected cells
T1 sequence (P08908 1-422): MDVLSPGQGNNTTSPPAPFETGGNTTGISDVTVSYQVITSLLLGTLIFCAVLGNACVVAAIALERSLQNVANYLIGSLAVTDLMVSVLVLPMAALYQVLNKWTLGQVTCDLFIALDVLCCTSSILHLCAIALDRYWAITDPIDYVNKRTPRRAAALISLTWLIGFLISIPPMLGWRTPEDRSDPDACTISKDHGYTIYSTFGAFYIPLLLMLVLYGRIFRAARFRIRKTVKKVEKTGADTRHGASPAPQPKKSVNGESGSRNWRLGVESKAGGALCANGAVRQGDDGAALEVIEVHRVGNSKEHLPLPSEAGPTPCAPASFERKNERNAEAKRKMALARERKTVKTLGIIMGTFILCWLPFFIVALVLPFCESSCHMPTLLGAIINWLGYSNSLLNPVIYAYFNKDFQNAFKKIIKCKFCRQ

serotonin transporter = target: T2, serotonin transporter (Rattus norvegicus, UniProt P31652); experiment: 5-HT transporter affinity: displacement of 3H-paroxetine from male rat cortical membranes; assay type: binding; settings: displacement of 3H-paroxetine; male rat cortical membranes; read-out: 5-HT Transporter Affinity Ki
T2 construct: displace ^3H-paroxetine from male rat cortical membranes; from tissue; host or cells: male rat cortical membranes
T2 sequence (P31652 whole entry): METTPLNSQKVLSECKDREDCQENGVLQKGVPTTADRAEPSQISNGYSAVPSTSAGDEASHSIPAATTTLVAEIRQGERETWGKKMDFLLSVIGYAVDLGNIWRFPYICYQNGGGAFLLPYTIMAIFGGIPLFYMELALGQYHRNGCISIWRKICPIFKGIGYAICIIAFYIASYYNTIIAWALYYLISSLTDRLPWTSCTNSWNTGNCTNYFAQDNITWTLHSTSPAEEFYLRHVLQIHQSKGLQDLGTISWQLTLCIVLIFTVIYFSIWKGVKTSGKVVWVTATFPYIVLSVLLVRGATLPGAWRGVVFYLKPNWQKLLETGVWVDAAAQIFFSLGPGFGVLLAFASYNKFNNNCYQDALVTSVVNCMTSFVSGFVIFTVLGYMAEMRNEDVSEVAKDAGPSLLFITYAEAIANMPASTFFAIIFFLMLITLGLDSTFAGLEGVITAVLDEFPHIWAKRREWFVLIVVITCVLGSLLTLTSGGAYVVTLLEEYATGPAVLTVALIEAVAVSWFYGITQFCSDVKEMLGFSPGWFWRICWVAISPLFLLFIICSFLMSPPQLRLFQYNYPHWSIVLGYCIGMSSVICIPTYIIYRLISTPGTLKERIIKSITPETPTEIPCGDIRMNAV

5-HT1A receptor [2] = target: T3, 5-HT1A receptor (Homo sapiens, UniProt P08908); experiment: 5-HT1A receptor affinity: displacement of [3H] 8-OH-DPAT; assay type: binding; set-up: expressed in transfected cells; settings: displacement of [3H] 8-OH-DPAT; CHO cells stably transfected with human 5-HT1A receptors; read-out: 5-HT1A Receptor Affinity Ki
T3 sequence (P08908 1-422): T1 sequence (P08908 1-422)

5-HT1A receptor [3] = target: T3, 5-HT1A receptor; experiment: cAMP accumulation assay, 5-HT1A function; assay type: cell-based; settings: for EC50: cells marked EC50 (agonist); for Emax: in brackets after EC50 or IC50, read-out: 5-HT1A Function cAMP (Emax)
[4] = maximum stimulatory effect, in brackets after EC50, read-out: 5-HT1A Function GTPγS (Emax)

NC(=O)c1cccc2c1CC(NCCCc1c[nH]c3ccc(F)cc13)CO2 (stereo not shown) [Compound 133, 3-{[3-(5-fluoro-1H-indol-3-yl)propyl]amino}chromane-5-carboxamide]
EC50 [1]: 3000 nM
Emax [1, 4]: 100%
melting point: 153 to 155 °C
Ki (serotonin transporter): 23.6 nM
Ki (5-HT1A receptor [2]): 65.1 nM
EC50 (5-HT1A receptor [3]): 128 nM
Emax (5-HT1A receptor [3]): 84%

NC(=O)c1cccc2c1CC(N(CCCc1c[nH]c3ccc(F)cc13)C1CCC1)CO2 (stereo not shown) [Compound 134, 3-{cyclobutyl[3-(5-fluoro-1H-indol-3-yl)propyl]amino}chromane-5-carboxamide]
EC50 [1]: 21.8 nM
IC50 ([1]; antagonist potency, reversal of 8-OH-DPAT, read-out: 5-HT1A Function GTPγS IC50): 184 nM
Emax ([1]; maximum inhibitory effect, in brackets after IC50, read-out: 5-HT1A Function GTPγS (Imax)): 69%
Emax [1, 4]: 28%
melting point: 102 to 105 °C
Ki (serotonin transporter): 8.67 nM
Ki (5-HT1A receptor [2]): 1.75 nM
EC50 (5-HT1A receptor [3]): 19.2 nM
Emax (5-HT1A receptor [3]): 81%
